{"source": "patent US8741944B2", "about": "“Anti-infective agents against intracellular pathogens” (priority 2007, dated 2014)", "key": {"recombinant PDK-1": {"target": "recombinant PDK-1 (Homo sapiens (Human), UniProt O15530)", "sequence (O15530 whole entry, looked up)": "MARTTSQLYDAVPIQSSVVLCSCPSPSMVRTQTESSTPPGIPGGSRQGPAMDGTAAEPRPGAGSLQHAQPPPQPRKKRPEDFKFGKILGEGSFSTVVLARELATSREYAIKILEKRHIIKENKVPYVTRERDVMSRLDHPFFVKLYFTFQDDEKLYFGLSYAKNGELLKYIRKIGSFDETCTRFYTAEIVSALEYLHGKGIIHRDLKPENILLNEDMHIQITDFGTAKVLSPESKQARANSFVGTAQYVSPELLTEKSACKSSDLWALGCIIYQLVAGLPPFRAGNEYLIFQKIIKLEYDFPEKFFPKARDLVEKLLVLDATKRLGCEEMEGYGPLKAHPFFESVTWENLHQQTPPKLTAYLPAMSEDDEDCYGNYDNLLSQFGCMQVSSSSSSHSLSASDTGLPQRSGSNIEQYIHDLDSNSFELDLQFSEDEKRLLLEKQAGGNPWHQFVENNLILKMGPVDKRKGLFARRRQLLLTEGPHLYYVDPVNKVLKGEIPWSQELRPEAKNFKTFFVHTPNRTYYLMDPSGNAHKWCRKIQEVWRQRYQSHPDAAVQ", "test": "PDK-1 kinase activity (PDK-1 kinase assay kit, cell-free)", "format": "biochemical", "conditions": "for IC50: inhibiting recombinant PDK-1 kinase activity", "method": "PDK-1 kinase activity This in vitro assay was performed using a PDK-1 kinase assay kit (Upstate, Lake Placid, N.Y.) according to the vendor's instructions. This cell-free assay is based on the ability of recombinant PDK-1, in the presence of DMSO vehicle or the test agent, to activate its downstream kinase serum- and glucocorticoid-regulated kinase (SGK.) which, in turn, phosphorylates the Akt/SGK-specific peptide substrate RPRAATF with [γ-^32]-ATP. […] The reported values represent the means of two independent determinations."}, "PC-3 cells [1]": {"system": "PC-3 cells", "test": "Cell viability analysis, MTT assay in PC-3 cells", "format": "cell-based, human", "method": "Cell Culture PC-3 (p53−/−) human androgen-non-responsive prostate cancer cells were purchased from the American […] (Manassas, Va.). Cells were cultured in RPMI 1640 medium (Gibco, Grand Island, N.Y.) supplemented with 10% fetal bovine serum (FBS; Gibco) at 37° C. in a humidified incubator containing 5% CO2.\nControls received DMSO vehicle at a concentration equal to that in drug-treated cells. The medium was removed, replaced by 200 μl of 0.5 mg/ml of MTT in 10% FBS-containing RPMI-1640 medium, and cells were incubated in the CO2 incubator at 37° C. for 2 h. Supernatants were removed from the wells, and the reduced MTT dye was solubilized in 200 μL/well DMSO. Absorbance at 570 nm was determined on a plate reader."}, "Akt [2]": {"system": "Akt", "test": "Direct inhibition of immunoprecipitated Akt kinase activity", "format": "biochemical, human"}, "PC-3 cells [3]": {"system": "PC-3 cells", "test": "Cell proliferation of PC-3 cells (Coulter counter, 10% FBS)", "format": "cell-based, human", "conditions": "1 μM, 10% FBS-supplemented RPMI 1640 medium", "method": "Cell Proliferation PC-3 cells were seeded into six-well plates at 50,000 cells/well in 10% FBS-containing RPMI 1640 medium. Following a 24 h attachment period, cells were treated in triplicate with the indicated concentration of compounds 1-36 or DMSO vehicle in 10% FBS-containing RPMI-1640 medium. At different time intervals, cells were harvested by trypsinization, and numerated using a Coulter counter model Z1 D/T (Beckman Coulter, Fullerton, Calif.)."}, "phospho-Akt": {"system": "phospho-Akt", "test": "Western blot analysis of Akt and phospho-Akt in PC-3 cells", "format": "cell-based, human", "conditions": "5 μM and above", "method": "Immunoblotting. The general procedure for the Western blot analysis of Akt and phospho-Akt is described as follows. Cells were washed in PBS, resuspended in SDS sample buffer sonicated by an ultrasonic sonicator for 5 see, and boiled for 5 min. After brief centrifugation, equivalent protein concentrations from the soluble fractions were resolved in 10% SDS-polyacrylamide gels on a Minigel apparatus, and transferred to a nitrocellulose membrane using a semi-dry transfer cell. The transblotted membrane was washed three times with TBS containing 0.05% Tween 20 (TBST). After blocking with TBST containing 5% nonfat milk for 60 min., the membrane was incubated with the primary antibody at 1:1,000 dilution in TBST-5% low fat milk at 4° C. for 12 h, and was then washed three times with TBST. The membrane was probed with goat anti-rabbit IgG-HRP conjugates (1:1,000) for 1 h at room temperature, and was washed with TBST three times. The immunoblots were visualized by enhanced chemiluminescence."}, "Akt [4]": {"system": "Akt", "test": "Immunoprecipitated Akt kinase assay after treatment of PC-3 cells (intracellular Akt activation)", "format": "cell-based, human", "conditions": "PC-3 cells treated for 2 h; read-out: IC50 for inhibiting intracellular Akt activation", "method": "Immunoprecipitated Akt kinase assay Akt immunoprecipitation was carried out according to a modified, published procedure. PC-3 cells were treated with DMSO vehicle or the test agents at the indicated concentrations for 2 h and then lysed at 4° C. for 1 h in buffer A containing 50 mM Tris-HCl, pH 7.5, 1% Triton X-100, 1 mM EDTA, 1 mM EGTA, 50 mM sodium fluoride, 10 mM sodium β-glycerophosphate. 0.1% 2-mercaptoethanol, 0.1 mM phenylmethylsiilfonyl fluoride, and 1 μg/mL each of aprotinin, pepstatin, and leupeptin. Cell lysates were centrifuged at 10,000 g for 5 min, and the supernatant was treated with anti-Akt at 4° C. for 60 min., followed by protein G-agarose beads for additional 60 min. The immunoprecipitate was used to analyze Akt kinase activity by using the Akt/SGK-specific peptide substrate RPRAATF as described above. Values represented the means of two independent determinations."}, "S. typhimurium [5]": {"system": "S. typhimurium", "test": "Intracellular survival (gentamicin protection) assay, S. typhimurium in RAW 264.7 murine macrophages", "format": "cell-based, Salmonella typhimurium", "method": "The discovery that OSU-03012 induces autophagy in human cancer cells, coupled with the importance of autophagy as a defense against intracellular pathogens, prompted us to test the effect of this agent on the intracellular survival of S. typhimurium in infected RAW 264.7 murine macrophages. Both time- and dose-dependent effects of OSU-03012 were assessed in intracellular survival (i.e. gentamicin protection) assays. […] To determine if OSU-03012 had direct bactericidal activity, the effect of OSU-03012 on extracellular bacterial growth was examined in liquid medium (FIG. 3C) and on agar by the disc-diffusion method (not shown)."}, "F. novicida": {"system": "F. novicida", "format": "cell-based", "conditions": "RAW 264.7 cells, 1 μM for 24 h"}, "autophagy": {"system": "autophagy", "test": "Autophagy induction", "format": "cell-based, human", "from_the_text": "OSU-03012 eliminates intracellular S. typhimurium by inducing autophagy in infected macrophages. […] Additional evidence for this mechanism of action comes from the human breast cancer cell lines, MCF-7 and MDA-MB-231, which differ in their expression levels of beclin-1, a tumor suppressor that is critical for the execution of autophagy (FIG. 5A). Accordingly, the ability of OSU-03012 to induce autophagy in these cell lines, as determined by the intensity of immunostaining for endogenous LC3, a marker of mammalian autophagosomes (FIG. 5C), correlates with their respective beclin-1 expression levels. Moreover, intracellular bacterial survival in OSU-03012-treated S. typhimurium-infected breast cancer cells also reflects their respective beclin-1 status (FIG. 5B). […] Moreover, OSU-03012 induces autophagy and bacterial clearance far more potently than rapamycin and at clinically attainable concentrations."}, "S. typhimurium [6]": {"system": "S. typhimurium", "test": "Extracellular bacterial growth in liquid medium and on agar (disc-diffusion)", "format": "cell-based, Salmonella typhimurium", "conditions": "concentrations of up to 5 μM"}, "[7]": {"conditions": "in vivo"}, "[8]": {"conditions": "inducing apoptotic death in PC-3 cells / PC-3 cell viability, read-out: IC50 PC-3"}}, "note": "“Also recorded” adds a separate entry of the source. Like-named read-outs stand apart in the source and are kept apart here.", "data": [{"compound": "4-[5-4-biphenylyl)-3-(trifluoromethyl)-1H-pyrazol-1-yl]benzensulfonamide [Compound 45]", "values": [{"measurement": "IC50", "setting": "recombinant PDK-1", "value": 21, "unit": "µM"}, {"measurement": "IC50", "setting": "PC-3 cells [1]; [8]", "value": 11, "unit": "µM"}]}, {"compound": "4-[5-(2-phenanthrenyl)-3-(trifluoromethyl)-1H-1-yl]benzenesulfonamide [Compound 59]", "values": [{"measurement": "direct inhibitory effect on immunoprecipitated Akt kinase activity", "setting": "Akt [2]", "value": "Neither compound 59 nor other the other compounds displayed a direct inhibitory effect"}, {"measurement": "improvement of IC50 values over 4-[5-(4-methylphenyl)-3-(trifluoromethyl)-1H-pyrazol-1-yl]benzenesulfonamide", "setting": "recombinant PDK-1; PDK-1 activity and PC-3 cell viability", "value": "five- to six-fold"}, {"measurement": "IC50", "setting": "PC-3 cells [1]; 24 h, 1% FBS-containing RPMI 1640 medium, read-out: dose required to induce 50% PC-3 cell death", "value": 5, "unit": "µM"}, {"measurement": "IC50", "setting": "PC-3 cells [1]; [8]", "value": 5, "unit": "µM"}, {"measurement": "anti-proliferative activity on PC-3 cell proliferation", "setting": "PC-3 cells [3]", "value": "substantial anti-proliferative activity"}, {"measurement": "Akt dephosphorylation (Western blot)", "setting": "phospho-Akt", "value": "significant Akt dephosphorylation"}, {"measurement": "IC50", "setting": "Akt [4]", "value": 5, "unit": "µM"}]}, {"compound": "4-[5-(3′,5′-dimethyl[1,1;-biphenyl]-4-yl)-3-(trifluoromethyl)-1H-1-yl]benzenesulfonamide [Compound 53]", "values": [{"measurement": "IC50", "setting": "recombinant PDK-1", "value": 17, "unit": "µM"}]}, {"compound": "4-[5-(4-(phenylmethyl)phenyl)-3-(trifluoromethyl)-1H-1-yl]benzenesulfonamide [Compound 56]", "values": [{"measurement": "IC50", "setting": "recombinant PDK-1", "value": 15, "unit": "µM"}, {"measurement": "IC50", "setting": "PC-3 cells [1]; [8]", "value": 8, "unit": "µM"}]}, {"compound": "4-[5-(4′-bromomethyl[1,1′-biphenyl]-4-yl)-3-(trifluoromethyl)-1H-1-yl]benzenesulfonamide [Compound 52]", "values": [{"measurement": "IC50", "setting": "recombinant PDK-1", "value": 20, "unit": "µM"}, {"measurement": "IC50", "setting": "PC-3 cells [1]; [8]", "value": 11, "unit": "µM"}]}, {"compound": "4-[5-(4′-butyl[1,1′-biphenyl]-4-yl)-3-(trifluoromethyl)-1H-1-yl]benzenesulfonamide [Compound 54]", "values": [{"measurement": "IC50", "setting": "recombinant PDK-1", "value": 32, "unit": "µM"}, {"measurement": "IC50", "setting": "PC-3 cells [1]; [8]", "value": 15, "unit": "µM"}]}, {"compound": "4-[5-(4′-methyl[1,1′-biphenyl]4-yl)-3-(trifluoromethyl)-1H-1-yl]benzenesulfonamide [Compound 50]", "values": [{"measurement": "IC50", "setting": "PC-3 cells [1]; [8]", "value": 8, "unit": "µM"}]}, {"compound": "4-[5-(4′-tert-buty[1,1′-biphenyl]-4-yl)-3-(trifluoromethyl)-1H-1-yl]benzenesulfonamide [Compound 55]", "values": [{"measurement": "IC50", "setting": "recombinant PDK-1", "value": 32, "unit": "µM"}, {"measurement": "IC50", "setting": "PC-3 cells [1]; [8]", "value": 15, "unit": "µM"}]}, {"compound": "4-[5-(4′triflouromethyl[1,1′-biphenyl]-4-yl)-3-(trifluoromethyl)-1H-1-yl]benzenesulfonamide [Compound 51]", "values": [{"measurement": "IC50", "setting": "recombinant PDK-1", "value": 18, "unit": "µM"}, {"measurement": "IC50", "setting": "PC-3 cells [1]; [8]", "value": 8, "unit": "µM"}]}, {"compound": "4-[5-(9-phenanthrenyl)-3-(trifluoromethyl)-1H-1-yl]benzenesulfonamide [Compound 60]", "values": [{"measurement": "IC50", "setting": "recombinant PDK-1", "value": 42, "unit": "µM"}, {"measurement": "IC50", "setting": "PC-3 cells [1]; [8]", "value": 23, "unit": "µM"}]}, {"compound": "4-[5-(9H-fluoren-2-yl)-3-(trifluoromethyl)-1H-1-yl]benzenesulfonamide [Compound 57]", "values": [{"measurement": "IC50", "setting": "recombinant PDK-1", "value": 16, "unit": "µM"}]}, {"compound": "5-(2-Phenanthrenyl)-3-(trifluoromethyl)-4-(1H-tetrazol-5-ylmethylphenyl)-1H-pyrazole [Compound 69]", "values": [{"measurement": "IC50", "setting": "recombinant PDK-1", "value": 45, "unit": "µM"}, {"measurement": "IC50", "setting": "PC-3 cells [1]; [8]", "value": 27, "unit": "µM"}]}, {"compound": "5-(2-Phenanthrenyl)-3-(trifluoromethyl)-4-(1H-tetrazol-5-ylphenyl)-1H-pyrazole [Compound 64]", "values": [{"measurement": "IC50", "setting": "recombinant PDK-1", "value": 52, "unit": "µM"}, {"measurement": "IC50", "setting": "PC-3 cells [1]; [8]", "value": 32, "unit": "µM"}]}, {"compound": "Cc1ccc(-c2cc(C(F)(F)F)nn2-c2ccc(S(N)(=O)=O)cc2)cc1", "note": "[Comparative Compound, 4-[5-(4-methylphenyl)-3-(trifluoromethyl)-1H-pyrazol-1-yl]benzenesulfonamide, reference compound]", "values": [{"measurement": "IC50", "setting": "PC-3 cells [1]; Homo sapiens, PC-3, read-out: IC50 PC-3", "value": 30, "unit": "µM"}]}, {"compound": "Cn1cnc(N)c2ncnc1-2", "note": "[Compound 3MA, 3-methyladenine]", "values": [{"measurement": "effect on ability of OSU-03012 to reduce intracellular bacterial survival", "setting": "S. typhimurium [5]; infected RAW 264.7 cells, 1 μM OSU-03012 for 8 h", "value": "completely blocked"}]}, {"compound": "NCC(=O)Nc1ccc(-n2nc(C(F)(F)F)cc2-c2ccc3c(ccc4ccccc43)c2)cc1", "note": "[OSU-03012]", "values": [{"measurement": "IC50", "setting": "recombinant PDK-1", "value": "~5", "unit": "µM"}, {"measurement": "intracellular survival of F. novicida", "setting": "F. novicida", "value": "drastically reduced; also recorded: reduced intracellular survival"}, {"measurement": "IC50 for autophagy induction", "setting": "autophagy", "value": "sub-μM"}, {"measurement": "concentration of maximal inhibition of intracellular bacterial survival", "setting": "S. typhimurium [5]; S. typhimurium in RAW 264.7, 8 h of treatment", "value": 1, "unit": "µM"}, {"measurement": "IC50", "setting": "S. typhimurium [5]; Salmonella enterica, RAW264.7, S. typhimurium in RAW 264.7, 8 h of treatment, read-out: IC50 of intracellular bacterial survival", "value": "~0.2", "unit": "µM"}, {"measurement": "extracellular growth of S. typhimurium", "setting": "S. typhimurium [6]", "value": "unaffected"}, {"measurement": "oral bioavailability / pharmacokinetic properties", "setting": "[7]", "value": "orally bioavailable with favorable pharmacokinetic properties"}]}, {"compound": "CO[C@H]1C[C@@H]2CC[C@@H](C)[C@@](O)(O2)C(=O)C(=O)N2CCCC[C@H]2C(=O)O[C@H]([C@H](C)C[C@@H]2CC[C@@H](O)[C@H](OC)C2)CC(=O)[C@H](C)/C=C(\\C)[C@@H](O)[C@@H](OC)C(=O)[C@H](C)C[C@H](C)/C=C/C=C/C=C/1C", "note": "[rapamycin]", "values": [{"measurement": "suppression of survival of S. typhimurium in murine macrophages", "setting": "S. typhimurium [5]", "value": "capable of suppressing survival"}, {"measurement": "fold higher concentration required to match bacterial clearance caused by OSU-03012", "setting": "S. typhimurium [5]; S. typhimurium in murine macrophages", "value": "~100", "unit": "fold"}]}]}
